System: adipocytes differentiated from OP9 mouse stromal cell line (ATCC CRL-2749)
Test: Oil red O staining of the fat content of adipocytes treated with plant extracts or combinations
Type: cell-based
Conditions: for Relative fat content: 7-10 days, relative to control group (100%)
Procedure: The neutral fat content of cells was determined by oil red O staining. Prior to staining, the cells were washed twice with PBS and then fixed with 10% formaldehyde at room temperature for 30 minutes. The fixed cells were washed twice with PBS and rinsed with 60% isopropanol for 1 minute. Thereafter, the cells were stained with an oil red O staining solution (1.8 mg/ml oil red O dissolved in 60% isopropanol aqueous solution) for 1 hour, and then treated with 60% isopropanol for 5 seconds to remove excess dye. Lastly, 100% isopropanol was added to the cells and incubated with shaking for 10 minutes to dissolve the intracellular dye, and the absorbance of the cell suspension at 510 nm was measured using an ELISA (enzyme-linked immunosorbent assay) reader (BioTek). The statistical significance of differences between data was determined by Student's t-test using the Excel software.
Briefly, OP9 cells were seeded at 8×10^4 cells/well in 24-well culture plates, where each well contained 500 μl of pre-adipocyte expansion medium (90% DMEM, 20% FBS, and 1% penicillin/streptomycin), and cultured at 37° C. for 7 days. The medium was refreshed every 3 days during cell culture with adipocyte differentiation medium (90% DMEM medium, 20% FBS, and 1% penicillin/streptomycin). After 7 days, complete differentiation into adipocytes were confirmed by examining oil droplets formed in the cells using a microscope (ZEISS; at 400× magnification). Thereafter, each of the plant extracts or each of the compositions containing plant extracts, listed in TABLE 1, was added to the cells, which were then cultured at 37° C. for 7-10 days, during which the adipocyte differentiation medium was refreshed every 3 days. Finally, the medium was removed, and the cells of each group were washed with PBS and subjected to oil red O staining for determination of the fat content. The relative fat content is a ratio of the cellular fat content of the experimental group relative to that of the control group (expressed as a percentage). […]

| Compound | Relative fat content (single treatment 0.5 mg/ml) | Change of the fat content of adipocytes compared to the control group (in words) (sole treatment, concentrations as in TABLE 1, Student's t-test) | Relative fat content (single treatment 0.015625 mg/ml) |
| --- | --- | --- | --- |
| CC1=C(/C=C/C(C)=C/C=C/C(C)=C/C=C/C=C(C)/C=C/C=C(C)/C=C/C2=C(C)CCCC2(C)C)C(C)(C)CCC1 [β-carotene] | 99.00% | did not significantly reduce the fat content |  |
| CC(C)=CCC/C(C)=C/C=C/C(C)=C/C=C/C(C)=C/C=C/C=C(C)/C=C/C=C(C)/C=C/C=C(\C)CCC=C(C)C [Lycopene] |  |  | 73.34% |
